We go through four compounds from PubChem BioAssay AID248 (DTP/NCI, 2004).

The assay deals with L1210 leukemia ip in BDF1 mice, survival T/C. Briefly: NCI In Vivo Anticancer Drug Screen. Data for tumor model L1210 Leukemia (intraperitoneal) in B6D2F1 (BDF1) mice. The settings on record: higher = longer survival. The method, boiled down:
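Ratio derived from survival: compound-dosed mice over vehicle-dosed mice, all bearing a transplantable tumor.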

Values joined by “and” are separate entries in the source; they are usually repeats but may differ in a detail not shown here. Equal values may be shown once. Toxic doses and inconclusive results are not listed.

Turning to `Oc1cc(CN(CCCl)CCCl)c(O)cc1CN(CCCl)CCCl`, the T/C is, setting by setting: (endpoint: mean survival time, dose: 0.06 mg/kg/injection, schedule: Q#A X Z (ip), vehicle: saline) 118 % of control; (endpoint: mean survival time, dose: 0.13 mg/kg/injection, schedule: Q01DX Z (ip), vehicle: saline) 120 % of control; (endpoint: mean survival time, dose: 0.25 mg/kg/injection, schedule: Q01DX001 (ip), vehicle: saline) 111 % of control; (endpoint: mean survival time, dose: 0.25 mg/kg/injection, schedule: Q01DX Z (ip), vehicle: saline) 122 % of control; (endpoint: mean survival time, dose: 0.25 mg/kg/injection, schedule: Q07DX003 (ip), vehicle: saline) 158 % of control; (endpoint: mean survival time, dose: 0.5 mg/kg/injection, schedule: Q01DX001 (ip), vehicle: saline) 104 % of control. The T/C was 121 % of control (endpoint: mean survival time, dose: 0.5 mg/kg/injection, schedule: Q01DX010 (ip), vehicle: saline); 104 % of control (endpoint: mean survival time, dose: 0.5 mg/kg/injection, schedule: Q07DX003 (ip), vehicle: saline); 122 % of control (endpoint: mean survival time, dose: 0.5 mg/kg/injection, schedule: Q#A X Z (ip), vehicle: saline); 107 % of control and 113 % of control (endpoint: mean survival time, dose: 1.0 mg/kg/injection, schedule: Q01DX001 (ip), vehicle: saline); 107 % of control and 118 % of control (endpoint: mean survival time, dose: 1.25 mg/kg/injection, schedule: Q01DX009 (ip), vehicle: saline); 111 % of control and 120 % of control (endpoint: mean survival time, dose: 2.0 mg/kg/injection, schedule: Q01DX001 (ip), vehicle: saline). Further, the T/C is 114 % of control (endpoint: mean survival time, dose: 2.0 mg/kg/injection, schedule: Q01DX006 (iv), vehicle: saline); 108 % of control (endpoint: mean survival time, dose: 2.0 mg/kg/injection, schedule: Q01DX Z (im), vehicle: saline); 108 % of control (endpoint: mean survival time, dose: 2.0 mg/kg/injection, schedule: Q01DX Z (sc), vehicle: saline); 119 % of control (endpoint: mean survival time, dose: 2.5 mg/kg/injection, schedule: Q01DX009 (ip), vehicle: saline); 106 % of control (endpoint: mean survival time, dose: 3.0 mg/kg/injection, schedule: Q03DX006 (ip), vehicle: saline); 108 % of control (endpoint: mean survival time, dose: 4.0 mg/kg/injection, schedule: Q01DX001 (ip), vehicle: saline). Besides, the T/C (endpoint: mean survival time, dose: 4.0 mg/kg/injection, schedule: Q01DX006 (iv), vehicle: saline) was 117 % of control; the T/C (endpoint: mean survival time, dose: 4.0 mg/kg/injection, schedule: Q01DX010 (ip), vehicle: saline) was 119 % of control; the T/C (endpoint: mean survival time, dose: 4.0 mg/kg/injection, schedule: Q01DX Z (im), vehicle: saline) was 120 % of control; the T/C (endpoint: mean survival time, dose: 4.0 mg/kg/injection, schedule: Q01DX Z (sc), vehicle: saline) is 114 % of control; the T/C (endpoint: mean survival time, dose: 5.0 mg/kg/injection, schedule: Q01DX009 (ip), vehicle: saline) was 122 % of control; the T/C (endpoint: mean survival time, dose: 5.0 mg/kg/injection, schedule: Q01DX010 (ip), vehicle: saline) was 117 % of control. The T/C reads like this: (endpoint: mean survival time, dose: 8.0 mg/kg/injection, schedule: Q01DX001 (ip), vehicle: saline) 104 % of control and 113 % of control; (endpoint: mean survival time, dose: 8.0 mg/kg/injection, schedule: Q01DX006 (iv), vehicle: saline) 123 % of control; (endpoint: mean survival time, dose: 8.0 mg/kg/injection, schedule: Q01DX Z (im), vehicle: saline) 108 % of control; (endpoint: mean survival time, dose: 8.0 mg/kg/injection, schedule: Q01DX Z (oral), vehicle: saline) 117 % of control; (endpoint: mean survival time, dose: 8.0 mg/kg/injection, schedule: Q01DX Z (sc), vehicle: saline) 111 % of control; (endpoint: mean survival time, dose: 8.0 mg/kg/injection, schedule: Q#A X Z (ip), vehicle: saline) 102 % of control. The T/C (endpoint: mean survival time, dose: 10.0 mg/kg/injection, schedule: Q01DX009 (ip), vehicle: saline) was 93 % of control and 96 % of control; the T/C (endpoint: mean survival time, dose: 10.0 mg/kg/injection, schedule: Q01DX010 (ip), vehicle: saline) was 89 % of control; the T/C (endpoint: mean survival time, dose: 16.0 mg/kg/injection, schedule: Q01DX001 (ip), vehicle: saline) was 122 % of control and 124 % of control; the T/C (endpoint: mean survival time, dose: 16.0 mg/kg/injection, schedule: Q01DX006 (iv), vehicle: saline) is 123 % of control; the T/C (endpoint: mean survival time, dose: 16.0 mg/kg/injection, schedule: Q01DX Z (im), vehicle: saline) is 117 % of control; the T/C (endpoint: mean survival time, dose: 16.0 mg/kg/injection, schedule: Q01DX Z (ip), vehicle: saline) was 103 % of control. The T/C by setting is: (endpoint: mean survival time, dose: 16.0 mg/kg/injection, schedule: Q01DX Z (oral), vehicle: saline) 109 % of control; (endpoint: mean survival time, dose: 16.0 mg/kg/injection, schedule: Q01DX Z (sc), vehicle: saline) 120 % of control; (endpoint: mean survival time, dose: 16.0 mg/kg/injection, schedule: Q07DX003 (ip), vehicle: saline) 114 % of control; (endpoint: mean survival time, dose: 24.0 mg/kg/injection, schedule: Q03DX006 (ip), vehicle: saline) 124 % of control; (endpoint: mean survival time, dose: 32.0 mg/kg/injection, schedule: Q01DX001 (ip), vehicle: saline) 120 % of control; (endpoint: mean survival time, dose: 32.0 mg/kg/injection, schedule: Q01DX Z (im), vehicle: saline) 93 % of control. The T/C reads like this: (endpoint: mean survival time, dose: 32.0 mg/kg/injection, schedule: Q01DX Z (oral), vehicle: saline) 111 % of control; (endpoint: mean survival time, dose: 32.0 mg/kg/injection, schedule: Q01DX Z (sc), vehicle: saline) 110 % of control; (endpoint: mean survival time, dose: 48.0 mg/kg/injection, schedule: Q03DX006 (ip), vehicle: saline) 104 % of control; (endpoint: mean survival time, dose: 64.0 mg/kg/injection, schedule: Q01DX001 (ip), vehicle: saline) 108 % of control and 110 % of control; (endpoint: mean survival time, dose: 64.0 mg/kg/injection, schedule: Q01DX Z (im), vehicle: saline) 95 % of control; (endpoint: mean survival time, dose: 64.0 mg/kg/injection, schedule: Q01DX Z (oral), vehicle: saline) 105 % of control. The T/C was 87 % of control (endpoint: mean survival time, dose: 64.0 mg/kg/injection, schedule: Q01DX Z (sc), vehicle: saline); 106 % of control (endpoint: mean survival time, dose: 64.0 mg/kg/injection, schedule: Q07DX003 (ip), vehicle: saline); 108 % of control and 114 % of control (endpoint: mean survival time, dose: 128.0 mg/kg/injection, schedule: Q01DX001 (ip), vehicle: saline); 119 % of control (endpoint: mean survival time, dose: 256.0 mg/kg/injection, schedule: Q01DX001 (ip), vehicle: saline); 104 % of control (endpoint: mean survival time, dose: 16.0 micrograms/kg/injection, schedule: Q03DX003 (ip), vehicle: saline); 98 % of control (endpoint: mean survival time, dose: 32.0 micrograms/kg/injection, schedule: Q03DX003 (ip), vehicle: saline). The T/C (endpoint: mean survival time, dose: 37.5 micrograms/kg/injection, schedule: Q07DX002 (ip), vehicle: saline) was 102 % of control; the T/C (endpoint: mean survival time, dose: 62.5 micrograms/kg/injection, schedule: Q03DX003 (ip), vehicle: saline) was 107 % of control; the T/C (endpoint: mean survival time, dose: 75.0 micrograms/kg/injection, schedule: Q07DX002 (ip), vehicle: saline) was 101 % of control; the T/C (endpoint: mean survival time, dose: 125.0 micrograms/kg/injection, schedule: Q03DX003 (ip), vehicle: saline) was 102 % of control; the T/C (endpoint: mean survival time, dose: 150.0 micrograms/kg/injection, schedule: Q07DX002 (ip), vehicle: saline) was 104 % of control; the T/C (endpoint: mean survival time, dose: 300.0 micrograms/kg/injection, schedule: Q07DX002 (ip), vehicle: saline) is 102 % of control. Further, the T/C is 157 % of control (endpoint: median survival time, dose: 1.25 mg/kg/injection, schedule: Q01DX009 (ip), vehicle: saline); 122 % of control (endpoint: median survival time, dose: 5.0 mg/kg/injection, schedule: Q01DX009 (ip), vehicle: saline); 105 % of control and 114 % of control (endpoint: median survival time, dose: 10.0 mg/kg/injection, schedule: Q01DX009 (ip), vehicle: saline).

With `CCCC(CCC)NC(CC)COC(=O)c1ccc(N)cc1` (stereo not given), the T/C (endpoint: mean survival time, dose: 75.0 mg/kg/injection, schedule: Q01DX001 (ip), vehicle: other) was 97 % of control.

Turning to `O=C(O)c1ccccc1C(=O)NNC(=O)c1ccccc1C(=O)O`, the T/C is 97 % of control (endpoint: mean survival time, dose: 100.0 mg/kg/injection, schedule: Q01DX009 (ip), vehicle: saline with Tween-80); 97 % of control (endpoint: mean survival time, dose: 100.0 mg/kg/injection, schedule: Q04DX003 (ip), vehicle: saline with Tween-80); 94 % of control (endpoint: mean survival time, dose: 200.0 mg/kg/injection, schedule: Q01DX009 (ip), vehicle: saline with Tween-80); 108 % of control (endpoint: mean survival time, dose: 200.0 mg/kg/injection, schedule: Q04DX003 (ip), vehicle: saline with Tween-80); 94 % of control (endpoint: mean survival time, dose: 400.0 mg/kg/injection, schedule: Q01DX009 (ip), vehicle: saline with Tween-80); 92 % of control (endpoint: mean survival time, dose: 400.0 mg/kg/injection, schedule: Q04DX003 (ip), vehicle: saline with Tween-80).

On to `O=P(O)(O)C(Cl)(Cl)Cl`, for which the T/C is 100 % of control (endpoint: mean survival time, dose: 50.0 mg/kg/injection, schedule: Q01DX009 (ip), vehicle: saline); 96 % of control (endpoint: mean survival time, dose: 100.0 mg/kg/injection, schedule: Q01DX009 (ip), vehicle: saline); 92 % of control (endpoint: mean survival time, dose: 100.0 mg/kg/injection, schedule: Q04DX002 (ip), vehicle: saline); 96 % of control (endpoint: mean survival time, dose: 200.0 mg/kg/injection, schedule: Q01DX009 (ip), vehicle: saline); 99 % of control (endpoint: mean survival time, dose: 200.0 mg/kg/injection, schedule: Q04DX002 (ip), vehicle: saline).
